How the values were obtained:
[1] = target: T1, TDO (A172 human glioblastoma cells) (Homo sapiens, UniProt P48775); test: A172 Kynurenine cell based assay; conditions: 500 μM L-tryptophan, 48 hours, kynurenine by Erhlich's reagent
T1 construct: This assay utilised cancer cells which expressed either TDO or IDO; endogenous in cells; host or cells: A172 human glioblastoma cells
How it was run: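 Kynurenine released into the supernatant was quantified by absorbance at 490 nm after 5 min with Erhlich's reagent. A172 cells were seeded at 30,000/well and exposed to test compound for 48 hours at 37° C. in phenol red-free RPMI containing 500 μM L-tryptophan, 10% FCS and 2 mM L-glutamine.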

Recombinant human TDO = Recombinant human TDO (Homo sapiens, UniProt P48775); test: hTDO biochemical coupled assay; conditions: 330 μM L-tryptophan, coupled with kynurenine formamidase
How it was run: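 Recombinant human TDO with 330 μM L-tryptophan in 50 mM KPO4 pH 7.0 containing EGTA, EDTA, Triton X100, ascorbate, methylene blue, catalase and kynurenine formamidase (KynB), 17 min at room temperature. Stopped with Ehrlich's reagent, 5 min, then kynurenine fluorescence read (Ex475, Em530).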

[2] = target: T2, IDO (SKOV3 human ovarian adenocarcinoma cells, IFN-γ induced) (Homo sapiens, UniProt P14902); test: SKOV3 Kynurenine cell based assay; conditions: IDO induced by 500 ng/ml IFN-γ, 500 μM L-tryptophan, 48 hours
T2 construct: IDO expression was induced in the SKOV3 cells by the addition of 500 ng/ml IFN-γ; endogenous in cells; host or cells: SKOV3 human ovarian adenocarcinoma cells, induced with IFN-γ
How it was run: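 Kynurenine in the supernatant, detected by Ehrlich's reagent, served as read-out after 48 h at 37° C with or without test compound. SKOV3 cells (40,000/well) were grown in phenol red-free RPMI, 10% FCS, 2 mM L-glutamine, 500 μM L-tryptophan, with 500 ng/ml IFN-γ to induce IDO.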

Recombinant human IDO = Recombinant human IDO (Homo sapiens, UniProt P14902); test: hIDO biochemical coupled assay; conditions: 45 μM L-tryptophan, coupled with kynurenine formamidase
How it was run: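 Recombinant human IDO incubated in 50 mM KPO4 (pH 7.0), 0.5 mM EGTA, 0.5 mM EDTA, 0.05% Triton X100, 20 mM ascorbate, 10 μM methylene blue, 500 U/ml catalase and 50 μg/ml kynurenine formamidase. N-formylkynurenine converted to kynurenine, quantified by fluorescence after Ehrlich's reagent.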

T1 sequence (P48775 whole entry): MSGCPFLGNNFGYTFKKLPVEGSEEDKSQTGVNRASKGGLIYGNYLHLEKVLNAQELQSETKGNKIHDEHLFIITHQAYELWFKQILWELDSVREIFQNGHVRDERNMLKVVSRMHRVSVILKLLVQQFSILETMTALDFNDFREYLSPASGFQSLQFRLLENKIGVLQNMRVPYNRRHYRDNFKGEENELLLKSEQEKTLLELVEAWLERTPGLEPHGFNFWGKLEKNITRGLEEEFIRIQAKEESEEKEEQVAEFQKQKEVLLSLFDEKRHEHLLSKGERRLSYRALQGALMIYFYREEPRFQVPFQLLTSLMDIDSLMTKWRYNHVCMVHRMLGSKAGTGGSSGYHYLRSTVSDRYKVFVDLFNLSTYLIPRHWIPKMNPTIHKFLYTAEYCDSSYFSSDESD
Sequence of Recombinant human TDO (P48775 whole entry): as above
Sequence of Recombinant human IDO (P14902 whole entry): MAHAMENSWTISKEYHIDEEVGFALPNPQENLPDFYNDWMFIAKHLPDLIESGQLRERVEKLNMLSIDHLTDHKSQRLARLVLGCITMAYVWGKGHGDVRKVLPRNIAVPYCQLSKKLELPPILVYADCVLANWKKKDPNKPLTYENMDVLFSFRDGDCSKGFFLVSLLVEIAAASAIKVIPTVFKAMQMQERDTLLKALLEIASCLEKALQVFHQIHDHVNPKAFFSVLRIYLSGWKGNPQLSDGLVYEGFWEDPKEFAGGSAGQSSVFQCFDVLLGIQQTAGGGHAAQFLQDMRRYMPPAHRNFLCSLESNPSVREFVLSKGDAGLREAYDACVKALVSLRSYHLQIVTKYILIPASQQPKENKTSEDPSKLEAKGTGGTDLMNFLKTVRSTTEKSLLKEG
T2 sequence (P14902 whole entry): as above

Structure (SMILES) | A172 Kynurenine cell based assay pIC50 [1] | hTDO biochemical assay pIC50 (Recombinant human TDO) | SKOV3 Kynurenine cell based assay pIC50 [2] | hIDO biocehmical assay pIC50 (Recombinant human IDO)
Cc1ccc2[nH]cc(C3CCN(S(=O)(=O)c4cccc(Cl)c4C)CC3)c2c1 [Compound 32] | +− (+− = pIC50 <4.00) | +− (+− = pIC50 <4.00) | + (+ = pIC50 4.00-4.99) | +− (+− = pIC50 <4.00)
COc1ccc(Br)cc1S(=O)(=O)N1CCC(c2c[nH]c3ccc(F)cc23)CC1 [Compound 27] | + (+ = pIC50 4.00-4.99) | +− (+− = pIC50 <4.00) | + (+ = pIC50 4.00-4.99) | +− (+− = pIC50 <4.00)
CS(=O)(=O)N1CCC(c2c[nH]c3ccccc23)CC1 [Compound 3] | ++ (++ = pIC50 5.00-5.99) | ++ (++ = pIC50 5.00-5.99) | +− (+− = pIC50 <4.00) | +− (+− = pIC50 <4.00)
Cc1[nH]c2ccccc2c1C1CCN(S(=O)(=O)c2ccc([N+](=O)[O-])cc2)CC1 [Compound 25] | +− (+− = pIC50 <4.00) | +− (+− = pIC50 <4.00) | + (+ = pIC50 4.00-4.99) | +− (+− = pIC50 <4.00)
CCNC(=O)N1CCC(c2c[nH]c3ccccc23)CC1 [Compound 68] | + (+ = pIC50 4.00-4.99) | ++ (++ = pIC50 5.00-5.99) | +− (+− = pIC50 <4.00) | +− (+− = pIC50 <4.00)
NC(=O)N1CCC(c2c[nH]c3ccccc23)CC1 [Compound 16] | + (+ = pIC50 4.00-4.99) | +− (+− = pIC50 <4.00) | +− (+− = pIC50 <4.00) | +− (+− = pIC50 <4.00)
COc1ccc2[nH]cc(C3CCN(S(=O)(=O)c4ccc(Br)cc4OC(F)(F)F)CC3)c2c1 [Compound 30] | +− (+− = pIC50 <4.00) | +− (+− = pIC50 <4.00) | + (+ = pIC50 4.00-4.99) | +− (+− = pIC50 <4.00)
CCCS(=O)(=O)N1CC=C(c2c[nH]c3cc(F)ccc23)CC1 [Compound 7] | +++ (+++ = pIC50 ≥6.00) | ++ (++ = pIC50 5.00-5.99) | + (+ = pIC50 4.00-4.99) | +− (+− = pIC50 <4.00)
CC(C)S(=O)(=O)N1CCC(c2c[nH]c3ccccc23)CC1 [Compound 73] | + (+ = pIC50 4.00-4.99) | +− (+− = pIC50 <4.00) | +− (+− = pIC50 <4.00) | +− (+− = pIC50 <4.00)
O=S(=O)(c1cc(C(F)(F)F)ccc1C(F)(F)F)N1CCC(c2c[nH]c3ccc(F)cc23)CC1 [Compound 26] | +− (+− = pIC50 <4.00) | +− (+− = pIC50 <4.00) | + (+ = pIC50 4.00-4.99) | +− (+− = pIC50 <4.00)
COc1ccc2[nH]cc(C3=CCN(C(C)=O)CC3)c2c1 [Compound 70] | +− (+− = pIC50 <4.00) | + (+ = pIC50 4.00-4.99) | +− (+− = pIC50 <4.00) | +− (+− = pIC50 <4.00)
Cc1ccc2[nH]cc(C3CCN(S(=O)(=O)c4cc(C)c(Cl)cc4Cl)CC3)c2c1 [Compound 31] | +− (+− = pIC50 <4.00) | +− (+− = pIC50 <4.00) | + (+ = pIC50 4.00-4.99) | +− (+− = pIC50 <4.00)

The next lines start with the values.

A172 Kynurenine cell based assay pIC50 [1] | hTDO biochemical assay pIC50 (Recombinant human TDO) | SKOV3 Kynurenine cell based assay pIC50 [2] | hIDO biocehmical assay pIC50 (Recombinant human IDO) | Structure (SMILES)
++ (++ = pIC50 5.00-5.99) | ++ (++ = pIC50 5.00-5.99) | + (+ = pIC50 4.00-4.99) | +− (+− = pIC50 <4.00) | CS(=O)(=O)N1CC=C(c2c[nH]c3cc(Cl)ccc23)CC1 [Compound 76]
++ (++ = pIC50 5.00-5.99) | + (+ = pIC50 4.00-4.99) | + (+ = pIC50 4.00-4.99) | +− (+− = pIC50 <4.00) | CS(=O)(=O)N1CC=C(c2c[nH]c3ccc(Cl)cc23)CC1 [Compound 166]
+ (+ = pIC50 4.00-4.99) | +− (+− = pIC50 <4.00) | + (+ = pIC50 4.00-4.99) | +− (+− = pIC50 <4.00) | CCn1ncc(S(=O)(=O)N2CCC3(CC2)C(=O)Nc2ccccc23)c1C [Compound 173]
+ (+ = pIC50 4.00-4.99) | +− (+− = pIC50 <4.00) | + (+ = pIC50 4.00-4.99) | +− (+− = pIC50 <4.00) | CC(=O)N1CCC(c2c[nH]c3ccncc23)CC1 [Compound 174]
+ (+ = pIC50 4.00-4.99) | +− (+− = pIC50 <4.00) | + (+ = pIC50 4.00-4.99) | +− (+− = pIC50 <4.00) | CS(=O)(=O)N1CCC(c2c[nH]c3cnccc23)CC1 [Compound 176]
+− (+− = pIC50 <4.00) | + (+ = pIC50 4.00-4.99) | +− (+− = pIC50 <4.00) | +− (+− = pIC50 <4.00) | COc1cccc2c(C3=CCN(S(C)(=O)=O)CC3)c[nH]c12 [Compound 93]
+− (+− = pIC50 <4.00) | +− (+− = pIC50 <4.00) | ++ (++ = pIC50 5.00-5.99) | +− (+− = pIC50 <4.00) | CS(=O)(=O)N1CCC(C2C(=O)Nc3cc(F)ccc32)CC1 (stereo not drawn) [Compound 178]
+ (+ = pIC50 4.00-4.99) | +− (+− = pIC50 <4.00) | +− (+− = pIC50 <4.00) | +− (+− = pIC50 <4.00) | CC(C)C(=O)N1CCC(c2c[nH]c3ccccc23)CC1 [Compound 106]
+ (+ = pIC50 4.00-4.99) | +− (+− = pIC50 <4.00) | +− (+− = pIC50 <4.00) | +− (+− = pIC50 <4.00) | CS(=O)(=O)N1CC=C(c2c[nH]c3c(F)cccc23)CC1 [Compound 100]
+++ (+++ = pIC50 ≥6.00) | +++ (+++ = pIC50 ≥6.00) | +− (+− = pIC50 <4.00) | +− (+− = pIC50 <4.00) | NS(=O)(=O)N1CC=C(c2c[nH]c3ccccc23)CC1 [Compound 162]
+++ (+++ = pIC50 ≥6.00) | ++ (++ = pIC50 5.00-5.99) | + (+ = pIC50 4.00-4.99) | +− (+− = pIC50 <4.00) | CS(=O)(=O)N1CC=C(c2c[nH]c3cc(F)ccc23)CC1 [Compound 103]
+ (+ = pIC50 4.00-4.99) | ++ (++ = pIC50 5.00-5.99) | + (+ = pIC50 4.00-4.99) | +− (+− = pIC50 <4.00) | CC(=O)N1CC=C(c2c[nH]c3ccc(C)cc23)CC1 [Compound 89]

Reference: US9931347B2, “Pharmaceutical compound” (IOmet Pharma Ltd., priority 2013, dated 2018)
